Experimental data: US20070197632A1, “Aminocyclohexyl ether compounds and uses thereof” (Cardiome Pharma Corp, priority 2003, published 2007)
Counter-ions that a name gives are not always drawn. Like-named read-outs stand apart in the source and are kept apart here.

Key:
[1] = test system: conscious rats; experiment: Determination of CNS toxicity: convulsions in conscious rats under intravenous infusion; conditions: Table 5, comparative example compounds; for convulsion dose: minimum iv infusion rate at which partial or complete convulsions are observed; for cum conv dose: total amount of drug infused when convulsions are first observed
[2] = test system: conscious rats; conditions: rat, in vivo, iv

For `Cl.FC(F)(F)c1ccccc1CCO[C@H]1CCCC[C@H]1N1CCOCC1` (racemic) [Comparative Example Compound 42, (1R,2S)/(1S,2R)-2-(4-morpholinyl)-1-[(2-trifluoromethyl)-phenethoxy]-cyclohexane monohydrochloride], the convulsion dose [1] was 16 µmol/kg/min.

Molecule `COc1ccc(CCOC2CCCC[C@H]2N2CCOCC2)cc1OC` (stereo partly drawn) [Comparative Example Compound 9, hydrochloride] has a convulsion dose [1] of 16 µmol/kg/min and a cum conv dose [1] of 113 µmol/kg.

In the case of `COc1ccc(CCO[C@H]2CCCCC2N2CCC3(C2)OCCO3)cc1OC` (stereo partly drawn) [Comparative Example Compound 10, monohydrochloride], the convulsion dose [1] is reported as 16 µmol/kg/min and the cum conv dose [1] is reported as 91.33 µmol/kg.

In the case of `COc1ccc(CCO[C@H]2CCCCC2N2CCCC2)cc1OC` (stereo partly drawn) [Comparative Example Compound 17, monohydrochloride], the convulsion dose [1] is reported as 21.33 µmol/kg/min and the cum conv dose [1] is reported as 118 µmol/kg.

With `COc1ccc(CCOC2CCCC[C@H]2N2CCC(=O)C2)cc1OC.Cl` (stereo partly drawn) [Comparative Example Compound 18, 1-{(1R,2R)/(1S,2S)-2-[2-(3,4-dimethoxyphenyl)-ethoxy]cyclohexyl}-pyrrolidin-3-one hydrochloride] the convulsion dose [1] was 32 µmol/kg/min.

`COc1ccc(CCOC2CCCC[C@H]2N2CCN(C(=O)Cc3ccc(OC)c(OC)c3)CC2)cc1OC.Cl.Cl` (stereo partly drawn) [Comparative Example Compound 22, 1-[(3,4-dimethoxyphenyl)acetyl]-4-{(1R,2R)/(1S,2S)-2-[2-(3,4-dimethoxyphenyl)-ethoxy]cyclohexyl}-piperazine hydrochloride] was tested, and the convulsion dose [1] was 21.33 µmol/kg/min and the cum conv dose [1] was 133 µmol/kg.

`Cl.OC1CCN(C2CCCC[C@@H]2OCCc2c(Cl)cccc2Cl)C1` (stereo partly drawn) [Comparative Example Compound 23, (3R)/(3S)-1-{(1R,2R)/(1S,2S)-2-[2-(2,6-dichlorophenyl)-ethoxy]cyclohexyl}-pyrrolidin-3-ol hydrochloride] gave a convulsion dose [1] of 8 µmol/kg/min and a cum conv dose [1] of 65 µmol/kg.

`Cl.OC1CCN(C2CCCC[C@@H]2OCCc2ccccc2Br)C1` (stereo partly drawn) [Comparative Example Compound 24, (3R)/(3S)-1-{(1R,2R)/(1S,2S)-2-[2-(2-bromophenyl)-ethoxy]cyclohexyl}-pyrrolidin-3-ol hydrochloride] gave a convulsion dose [1] of 13 µmol/kg/min and a cum conv dose [1] of 67 µmol/kg.

Molecule `Cl.OC1CCN([C@@H]2CCCC[C@@H]2OCCc2cccc3ccccc23)C1` (stereo partly drawn) [Comparative Example Compound 25, (3R)/(3S)-1-{(1R,2S)/(1S,2R)-2-[2-(1-naphthyl)ethoxy]-cyclohexyl}-pyrrolidin-3-ol hydrochloride] has a convulsion dose [1] of 16 µmol/kg/min and a cum conv dose [1] of 70 µmol/kg.

With `Cl.OC1CCN(C2CCCC[C@@H]2OCCc2cccc3ccccc23)C1` (stereo partly drawn) [Comparative Example Compound 26, (3R)/(3S)-1-{(1R,2R)/(1S,2S)-2-[2-(1-naphthyl)ethoxy]-cyclohexyl}-pyrrolidin-3-ol hydrochloride] the convulsion dose [1] was 8 µmol/kg/min.

`Cl.O[C@@H]1CCN(C2CCCC[C@@H]2OCCc2ccccc2C(F)(F)F)C1` (stereo partly drawn) [Comparative Example Compound 27] was tested, and the convulsion dose [1] was 16 µmol/kg/min.

`Cl.OC1CCN(C2CCCC[C@@H]2OCCn2ccc3ccccc32)C1` (stereo partly drawn) [Comparative Example Compound 28] gave a convulsion dose [1] of 16 µmol/kg/min.

In the case of `c1ccc2cc(CCO[C@H]3CCCCC3N3CCOCC3)ccc2c1` (stereo partly drawn) [Comparative Example Compound 30, (1R,2R)/(1S,2S)-[2-(4-morpholinyl)-1-(2-naphihenethoxy)]-cyclohexane monohydrochloride], the cum conv dose [1] is reported as 85 µmol/kg.

`c1ccc2c(CCO[C@H]3CCCCC3N3CCOCC3)cccc2c1` (stereo partly drawn) [Comparative Example Compound 31, (1R,2R)/(1S,2S)-[2-(4-morpholinyl)-1-(1-naphthenethoxy)]-cyclohexane] showed a convulsion dose [1] of 16 µmol/kg/min and a cum conv dose [1] of 93 µmol/kg.

For `Brc1ccc(CCO[C@H]2CCCCC2N2CCOCC2)cc1` (stereo partly drawn) [Comparative Example Compound 32], the convulsion dose [1] was 12 µmol/kg/min and the cum conv dose [1] was 91 µmol/kg.

Molecule `c1ccc2cc(OCCO[C@H]3CCCCC3N3CCOCC3)ccc2c1` (stereo partly drawn) [Comparative Example Compound 33, (1R,2R)/(1S,2S)-[2-(4-morpholinyl)-1-[2-(2-naphthoxy)ethoxy]]-cyclohexane] has a convulsion dose [1] of 8 µmol/kg/min.

Molecule `Brc1ccc(OCCO[C@H]2CCCCC2N2CCOCC2)cc1` (stereo partly drawn) [Comparative Example Compound 34, (1R,2R)/(1S,2S)-[2-(4-morpholinyl)-1-[2-(4-bromophenoxy)-ethoxy]]cyclohexane] has a cum conv dose [1] of 83 µmol/kg.

`COc1ccc(CCO[C@H]2CCCCC2N2CCOCC2)cc1OC` (stereo partly drawn) [Comparative Example Compound 35, (1R,2R)/(1S,2S)-[2-(4-morpholinyl)-1-(3,4-dimethoxy-phenethoxy)]-cyclohexane] gave a convulsion dose [1] of 16 µmol/kg/min.

Molecule `c1ccc2c(CCO[C@H]3CCCCC3N3CCOCC3)csc2c1` (stereo partly drawn) [Comparative Example Compound 36] has a convulsion dose [1] of 8 µmol/kg/min and a cum conv dose [1] of 65 µmol/kg.

`c1cc(CCO[C@H]2CCCCC2N2CCOCC2)c2ccsc2c1` (stereo partly drawn) [Comparative Example Compound 37] gave a convulsion dose [1] of 8 µmol/kg/min and a cum conv dose [1] of 54 µmol/kg.

Work on `Brc1cccc(CCO[C@H]2CCCCC2N2CCOCC2)c1` (stereo partly drawn) [Comparative Example Compound 38, (1R,2R)/(1S,2S)-[2-(4-morpholinyl)-1-(3-bromophenethoxy)]-cyclohexane] yielded a convulsion dose [1] of 16 µmol/kg/min.

Molecule `Brc1ccccc1CCO[C@H]1CCCCC1N1CCOCC1` (stereo partly drawn) [Comparative Example Compound 39, (1R,2R)/(1S,2S)-[2-(4-morpholinyl)-1-(2-bromophenethoxy)]-cyclohexane] has a convulsion dose [1] of 16 µmol/kg/min.

`Clc1ccc(CCO[C@H]2CCCCC2N2CCOCC2)cc1Cl` (stereo partly drawn) [Comparative Example Compound 40, (1R,2R)/(1S,2S)-2-(4-morpholinyl)-1-(3,4-dichlorophenethoxy)cyclo-hexane] gave a convulsion dose [1] of 16 µmol/kg/min.

With `Cl.O=C1CCN(C2CCCC[C@@H]2OCCc2c(Cl)cccc2Cl)C1` (stereo partly drawn) [Comparative Example Compound 41, (1R,2R)/(1S,2S)-2-(3-ketopyrrolidinyl)-1-(2,6-dichlorophenethoxy)cyclo-hexane monohydrochloride] the convulsion dose [1] was 32 µmol/kg/min and the cum conv dose [1] was 190 µmol/kg.

Molecule `CC(=O)OC1CCN([C@@H]2CCCCC2OCCc2cccc3ccccc23)C1.Cl` (stereo partly drawn) [Comparative Example Compound 43, (1R,2R)/(1S,2S)-2-(3-acetoxypyrrolidinyl)-1-(1-naphthenethoxy)cyclo-hexane monohydrochloride] has a convulsion dose [1] of 8 µmol/kg/min and a cum conv dose [1] of 65 µmol/kg.

With `Cl.Clc1cccc(Cl)c1COC1CCCC[C@H]1N1CCOCC1` (stereo partly drawn) [Comparative Example Compound 44, (1R,2R)/(1S,2S)-2-(4-morpholinyl)-1-[(2,6-dichlorophenyl)methoxy]-cyclohexane monohydrochloride] the convulsion dose [1] was 16 µmol/kg/min and the cum conv dose [1] was 97 µmol/kg.

`Cl.O=C1CCN([C@@H]2CCCCC2OCc2c(Cl)cccc2Cl)C1` (stereo partly drawn) [Comparative Example Compound 45, (1R,2R)/(1S,2S)-2-(3-ketopyrrolidinyl)-1-[(2,6-dichlorophenyl)methoxy]-cyclohexane monohydrochloride] gave a convulsion dose [1] of 32 µmol/kg/min.

Molecule `Cl.OC1CCN(C2CCCC[C@@H]2OCCc2c(Cl)cccc2Cl)C1` (stereo partly drawn) [Comparative Example Compound 46, (1R,2R)/(1S,2S)-2-(3-hydroxypyrrolidinyl)-1-(2,6-dichlorophenethoxy)cyclo-hexane monohydrochloride] has a convulsion dose [1] of 8 µmol/kg/min.

`Cl.O=C1CCN(C2CCCC[C@@H]2OCC(c2ccccc2)c2ccccc2)C1` (stereo partly drawn) [Comparative Example Compound 47, (1R,2R)/(1S,2S)-2-(3-ketopyrrolidinyl)-1-(2,2-diphenylethoxy)cyclo-hexane monohydrochloride] was tested, and the convulsion dose [1] was 21 µmol/kg/min.

`Cl.Clc1cccc(Cl)c1CCOC1CCCC[C@H]1N1CCSC1` (stereo partly drawn) [Comparative Example Compound 48, (1R,2R)/(1S,2S)-2-(3-thiazolidinyl)-1-(2,6-dichlorophenethoxy)cyclo-hexane monohydrochloride] was tested, and the convulsion dose [1] was 43 µmol/kg/min.

For `Cl.Clc1cccc(Cl)c1CCO[C@@H]1CCCC[C@H]1N1CCSC1` [Comparative Example Compound 48, (1R,2R)/(1S,2S)-2-(3-thiazolidinyl)-1-(2,6-dichlorophenethoxy)cyclo-hexane monohydrochloride], the convulsion dose [1] was 8 µmol/kg/min and the cum conv dose [1] was 44.4 µmol/kg.

For `COc1ccc(CCO[C@H]2CCCC[C@@H]2N2CC[C@@H](O)C2)cc1OC.Cl` [Compound 2, (1S,2S)-2-[(3R)-Hydroxypyrrolidinyl]-1-(3,4-dimethoxyphenethoxy)-cyclohexane monohydrochloride], the convulsion dose [2] was 64 µmol/kg/min.

`COc1ccc(CCO[C@H]2CCCCC2N2CCC(O)C2)cc1OC` (stereo partly drawn) [Compound 3, (1R,2R)/(1S,2S)-2-[(3R)/(3S)-Hydroxypyrrolidinyl]-1-(3,4-dimethoxyphenethoxy)-cyclohexane monohydrochloride] showed a convulsion dose [2] of 64 µmol/kg/min.

Work on `COc1ccc(CCO[C@H]2CCCCC2N2CC[C@@H](O)C2)cc1OC.Cl` (stereo partly drawn) [Compound 4, (1R,2R)/(1S,2S)-2-[(3R)-Hydroxypyrrolidinyl]-1-(3,4-dimethoxyphenethoxy)-cyclohexane monohydrochloride] yielded a convulsion dose [2] of 64 µmol/kg/min.

With `COc1ccc(CCO[C@H]2CCCCC2N2CC[C@H](O)C2)cc1OC.Cl` (stereo partly drawn) [Compound 5, (1R,2R)/(1S,2S)-2-[(3s)-Hydroxypyrrolidinyl]-1-(3,4-dimethoxyphenethoxy)-cyclohexane monohydrochloride] the convulsion dose [2] was 64 µmol/kg/min.

`COc1ccc(CCO[C@@H]2CCCC[C@H]2N2CC[C@H](O)C2)cc1OC.Cl` [Compound 6, (1R,2R)-2-[(3S)-Hydroxypyrrolidinyl]-1-(3,4-dimethoxyphenethoxy)-cyclohexane monohydrochloride] was tested, and the convulsion dose [2] was 64 µmol/kg/min.
